According to patent US20040023884A1, “Biologically active peptides from functional domains of bactericidal/permeability-increasing protein and uses thereof” (priority 1993, published 2004):
“Also recorded” adds a separate entry of the source.

Key:
[1] = test system: E. coli 0111:B4 (smooth) bacteria; experiment: Radial diffusion bactericidal assay, E. coli 0111:B4; type: cell-based; settings: radial diffusion; for pmol added to well to achieve a 30 mm^2 bactericidal zone, E. coli O111:B4: PROBIT analysis, E. coli O111:B4 (smooth)
[2] = test system: L-form of S. aureus ATCC 19640; experiment: Activity against L-forms of gram-positive bacteria; type: cell-based
Description: The bactericidal capacity of BPI peptides provided by the invention was also tested against Gram-positive bacteria (See Table VIII A). […] In addition, peptides were tested for their activity against L-forms of gram-positive bacteria, such as the L-form of S. aureus ATCC 19640.

[3] = test system: rough mutant E. coli J5 bacteria; experiment: Radial diffusion bactericidal assay, E. coli J5; type: cell-based; settings: for pmol added to well to achieve a 30 mm^2 bactericidal zone, E. coli J5 / bactericidal activity (in words): radial diffusion; for pmol added to well to achieve a 30 mm^2 bactericidal zone, E. coli J5: PROBIT analysis, E. coli J5 (rough); for bactericidal activity (in words): E. coli J5
Procedure, shortened: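 Log-phase bacteria (3 h at 37 °C in tryptic soy broth), washed in 10 mM sodium phosphate pH 7.4, were embedded at 4×10^6 CFU/mL in underlayer agarose. BPI proteolytic fragments (5 or 10 μL) went into 3 mm wells for 3 h at 37 °C, then agarose overlay and overnight 37 °C growth. Clear zones were measured by micrometer.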

Staphylococcus aureus = experiment: Radial diffusion bactericidal assay, Staphylococcus aureus; type: cell-based
E. coli O18:K1:H7 = experiment: Radial diffusion bactericidal assay, E. coli O18:K1:H7; type: cell-based; settings: FIG. 11b; up to about 2000 pmol
[4] = 3H-heparin binding assay (affinity and capacity)
Procedure, shortened: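 Peptide fragments were bound to PVDF-membrane wells and incubated with 3H-heparin in blocking buffer for 1 h at 4 °C. After washing, bound radioactivity was quantified by liquid scintillation counting, with BSA background subtracted; rBPI23 served as positive control.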

E. coli O75 = experiment: Radial diffusion bactericidal assay, E. coli O75; type: cell-based; settings: FIG. 11d; up to about 2000 pmol
E. coli 0113 LPS = experiment: Limulus Amoebocyte Lysate (LAL) inhibition assay; type: biochemical
Description: BPI proteolytic fragments produced according to Example 1 were subjected to a Limulus Amoebocyte Lysate (LAL) inhibition assay to determine LPS binding properties of these fragments. Specifically, each of the fragments were mixed in Eppendorf tubes with a fixed concentration of E. coli 0113 LPS (4 ng/mL final concentration) and incubated at 37° C. for 3 hours with occasional shaking. Addition controls comprising rBPI23 at 0.05 μg/mL were also tested. Following incubation, 360 μL of Dulbecco's phosphate buffered saline (D-PBS; Grand Island Biological Co. (GIBCO), Long Island, N.Y.) were added per tube to obtain an LPS concentration of 200 pg/mL for the LAL assay. Each sample was then transferred into Immulon II strips (Dynatech, Chantilly, Va.) in volumes of 50 μl per well.
Limulus amoebocyte Lysate (Quantitative Chromogenic LAL kit, Whitaker Bioproducts, Inc., Walkersville, Md.) was added at 50 μL per well and the wells were incubated at room temperature for 25 minutes. Chromogenic substrate was then added at a volume of 100 μL per well and was well mixed. After incubation for 20 to 30 minutes at room temperature, the reaction was stopped with addition of 100 μL of 25% (v/v) acetic acid. Optical density at 405 nm was then measured in a multiplate reader (Model Vmax, […], Menlo Park, Calif.) with the results shown in FIG. 2 in terms of percent inhibition of LPS. In this Figure, the filled circle represents rBPI23; the open circle represents Asp-N fragment A3; the x represents Asp-N fragment A2, the filled square represents Asp-N fragment A4; the filled triangle represents Asp-N fragment A1A2; the open square represents Asp-N fragment A6a; the small open triangle represents CNBr fragment C3; and the small filled square represents CNBr fragment C1/C5.

Klebsiella pneumoniae = experiment: Radial diffusion bactericidal assay, Klebsiella pneumoniae; type: cell-based
Pseudomonas aeruginosa = experiment: Radial diffusion bactericidal assay, Pseudomonas aeruginosa; type: cell-based; settings: FIG. 11a; up to about 2000 pmol
E. coli strain 07-K1 = experiment: Radial diffusion bactericidal assay, E. coli 07-K1; type: cell-based; settings: FIG. 10c
Description: BPI proteolytic fragments produced according to Example 1 were screened for bactericidal effects using rough mutant E. coli J5 bacteria in a radial diffusion assay. Specifically, an overnight culture of E. coli J5 was diluted 1:50 into fresh tryptic soy broth and incubated for 3 hours at 37° C. to attain log phase growth of the culture. Bacteria were then pelleted at 3,000 rpm for 5 minutes in a Sorvall RT6000B centrifuge (Sorvall Instruments, Newton, Conn.). 5 mL of 10 mM sodium phosphate buffer (pH 7.4) was added and the preparation was re-pelleted. […] The bacteria were diluted to 4×10^6 CFU/mL in 10 mL of molten underlayer agarose (at approximately 45° C.) and inverted repeatedly to mix in 15 mL polypropylene tubes conventionally used for this purpose.
The entire contents of such tubes were then poured into a level square petri dish and distributed evenly by rocking the dish side-to-side. […] A series of wells were then punched into the hardened agarose using a sterile 3 mm punch attached to a vacuum apparatus. The punch was sterilized with 100% alcohol and allowed to air dry prior to use to avoid contaminating the bacterial culture.
5 or 10 μL of each of the BPI fragments were carefully pipetted into each well. As a negative control, dilution buffer (pH 8.3) was added to a separate well, and rBPI23 at concentrations of 5 μg/mL and 1 μg/mL were also added as positive controls. Each plate was incubated at 37° C. for 3 hours, and then 10 mL of molten overlayer agarose (at approximately 45° C.) was added into the level petri dish, allowed to harden and incubated overnight at 37° C. […] The bacterial zones were measured with a micrometer.
Additional experiments were performed using various other bacteria as target cells to examine the range of bactericidal killing of these BPI functional domain peptides.

[5] = In vivo APTT in heparinized rats; design: species or system Sprague-Dawley rats; settings: 100 U/kg heparin i.v., test protein 5 minutes later, blood 2 minutes after
Description: The in vivo effect of exemplary BPI combination peptides on APTT in heparinized rats was determined and compared with the in vivo effect of rBPI23. APTT is lengthened by the presence of endogenous or exogenous inhibitors of thrombin formation, such as therapeutically administered heparin. Agents which neutralize the anti-coagulant effects of heparin will reduce the APTT as measured by this test. Sprague-Dawley rats housed under NIH guidelines were administered with 100 U/kg heparin by bolus intravenous injections via the animals' tail vein followed 5 minutes later by administration of varying amounts of test or control protein as compared with rBPI23. The APTT was then determined from blood samples collected from the abdominal aorta 2 minutes after the administration of the test or control protein. The APTT of untreated animals, as well as animals treated only with a BPI peptide, was also determined.

[6] = test system: LPS-stimulated NO production by RAW 264.7 cells; experiment: LPS-stimulated NO production by RAW 264.7 cells; type: cell-based, mouse
Description: An additional LPS neutralization screening assay for BPI functional domain peptides was developed using an assay for NO production in mouse cells treated with LPS (see Lorsbach et al., 1993, J. Biol. Chem. 268: 1908-1913). In this assay, mouse RAW 264.7 cells (ATCC Accession No. TIB71) were treated with bacterial LPS. The cells were incubated in 96-well plates and stimulated for 2 hours with E. coli 0113 LPS or zymosan, in the presence or absence of _-interferon, rLBP, fetal bovine serum (FBS) or normal human serum (NHS), or rBPI21Δcys. After this incubation, the cells were washed with fresh media and incubated overnight in media containing 10% FCS. The NO released from the cells accumulated in the media and spontaneously converted to nitrite. This nitrite was assayed in situ by the Griess reaction, as follows. The nitrite was reacted with the primary amine of an added sulfanilamide and formed a diazonium salt. This salt was then reacted with added naphthylethylenediamine to form a red azo-dyc. The Griess reaction was performed at room temperature in about 10 minutes. The amount of produced NO was estimated from a standard curve of Griess reaction products determined spectrophotometrically as Absorbance at a wavelength of 550 nm.

[7] = In vitro heparin-mediated lengthening of APTT / clotting time of heparinized plasma; type: biochemical, human
Description: In vitro, the effect of BPI combination functional domain peptides was determined on heparin-mediated lengthening of activated partial […] (APTT). The APTT is lengthened by the presence of endogenous or exogenous inhibitors of thrombin formation, such as therapeutically administered heparin. Thus, agents which neutralize the anti-coagulant effects of heparin will reduce the APTT measured by the test. Citrated human plasma (200 μL) was incubated for 1 minute at 37° C. with either 15 μL of diluent (0.15 M NaCl, 0.1 M Tris-HCl, pH 7.4) or 15 μL of the diluent also containing 25 μg/mL heparin (187 units/mg). Various concentrations (from 0.0 to 56 μg/mL) of rBPI23, rBPI21Δcys, or BPI combination peptides BPI.29 (the DIII homodimer) and BPI.30 (heterodimer DII+DIII) in a volume of 15 μL were added, followed immediately by 100 μL of thrombin reagent (Catalog No. 845-4, Sigma Chemical Co., St. Louis. MO). Clotting time ([…]) was measured using a BBL Fibrometer (Becton Dickenson Microbiology Systems, Cockeysville, Md.). […] FIG. 12e illustrates the results obtained with BPI.30 on a non-log scale.

IKISGKWKAQKRKLK [BPI.120]
pmol added to well to achieve a 30 mm^2 bactericidal zone, E. coli O111:B4 [1]: b (no detectable activity up to 5 μg/well)
activity against L-form bacteria (in words) [2]: active against these L-form bacteria
pmol added to well to achieve a 30 mm^2 bactericidal zone, E. coli J5 [3]: b (no detectable activity up to 5 μg/well)
pmol added to well to achieve a 30 mm^2 bactericidal zone, S. aureus (Staphylococcus aureus; radial diffusion, PROBIT analysis, S. aureus): b (no detectable activity up to 5 μg/well)

KWKAQKRFLK [BPI.8]
bactericidal activity (in words) (E. coli O18:K1:H7): no bactericidal activity
bactericidal activity (in words) ([1]; E. coli 0111:B4): little to no bactericidal activity
pmol added to well to achieve a 30 mm^2 bactericidal zone, E. coli O111:B4 [1]: b (no detectable activity up to 5 μg/well)
bactericidal activity (in words) [3]: little to no bactericidal activity; also recorded: no detectable bactericidal activity against E. coli J5 cells at concentrations of 1000 μg/mL; also recorded: little or no bactericidal activity
pmol added to well to achieve a 30 mm^2 bactericidal zone, E. coli J5 [3]: 25,695.10 pmol
heparin binding activity (in words) [4]: little or no heparin binding activity
heparin binding capacity (in words) [4]: low heparin binding capacity
Heparin Capacity ([4]; heparin bound at saturation): 92.2 ng
Kd ([4]; read-out: Heparin Affinity): 574 nM
bactericidal activity (in words) (E. coli O75): no bactericidal activity
bactericidal activity (in words) (Staphylococcus aureus; FIG. 10e): no bactericidal activity at concentrations of 800 μg/mL
LAL / LPS inhibition activity (in words) (E. coli 0113 LPS): no significant LPS inhibition activity
bactericidal activity (in words) (Klebsiella pneumoniae; FIG. 11c, up to about 2000 pmol): no bactericidal activity
bactericidal activity (in words) (Klebsiella pneumoniae; FIG. 10d): no bactericidal activity at concentrations of 800 μg/mL
bactericidal activity (in words) (Pseudomonas aeruginosa): no bactericidal activity
bactericidal activity (in words) (E. coli strain 07-K1): low levels of bactericidal activity

B1: rBPI23: recombinant 23 kD amino-terminal fragment, approximately the first 199 amino acid residues of human BPI (protein)
chain: VNPGVVVRISQKGLDYASQQGTAALQKELKRIKIPDYSDSFKIKHLGKGHYSFYSMDIREFQLPSSQISMVPNVGLKFSISNANIKISGKWKAQKRFLKMSGNFDLSIEGMSISADLKLGSNPTSGKPTITCSSCSSHINSVHVHISKSKVGWLIQLFHKKIESALRN
APTT in heparinized rats (in words) [5]: administration of about 5 mg/kg results in a APTT of the heparinized and BPI-treated animals that is almost the same as the untreated control animals
lowest amount with measurable bactericidal activity [3]: 0.75 pmol/well
bactericidal activity (in words) [3]: showed bactericidal activity
cpm ^3H-Heparin bound ([4]; 100 picomoles of each fragment per well, saturating 3H-heparin 20 μg/mL, mean of duplicate wells ± range): 51,222 ± 1,808 cpm
IC50 of inhibition of LPS-stimulated NO production [6]: 0.03 to 0.1 µg/mL
IC50 (E. coli 0113 LPS; read-out: IC50 of inhibition of the LPS-induced LAL reaction): 9 nM
bactericidal activity (in words) (E. coli strain 07-K1): no bactericidal activity at concentrations of 100 μg/mL; also recorded: low bactericidal activity even at concentrations of 1000 μg/mL
effect on the clotting time of heparinized blood (in words) ([7]; FIG. 12g): smaller effect
effect on heparin-mediated lengthening of APTT (in words) ([7]; citrated human plasma, 25 μg/mL heparin, 0.0 to 56 μg/mL): inhibits the heparin-mediated lengthening of APTT
